{"source": "patent US20140194500A1", "about": "(Kookmin University Industry Academic Cooperation Foundation, priority 2013, published 2014)", "key": {"[1]": {"target": "T1, SARS coronavirus helicase nsP13 (Severe acute respiratory syndrome coronavirus, UniProt P0C6X7)", "format": "biochemical"}, "HCV viral helicase, NS3h": {"target": "HCV viral helicase, NS3h (Hepatitis C virus genotype 1a, UniProt P27958)", "sequence (P27958 1193-1657)": "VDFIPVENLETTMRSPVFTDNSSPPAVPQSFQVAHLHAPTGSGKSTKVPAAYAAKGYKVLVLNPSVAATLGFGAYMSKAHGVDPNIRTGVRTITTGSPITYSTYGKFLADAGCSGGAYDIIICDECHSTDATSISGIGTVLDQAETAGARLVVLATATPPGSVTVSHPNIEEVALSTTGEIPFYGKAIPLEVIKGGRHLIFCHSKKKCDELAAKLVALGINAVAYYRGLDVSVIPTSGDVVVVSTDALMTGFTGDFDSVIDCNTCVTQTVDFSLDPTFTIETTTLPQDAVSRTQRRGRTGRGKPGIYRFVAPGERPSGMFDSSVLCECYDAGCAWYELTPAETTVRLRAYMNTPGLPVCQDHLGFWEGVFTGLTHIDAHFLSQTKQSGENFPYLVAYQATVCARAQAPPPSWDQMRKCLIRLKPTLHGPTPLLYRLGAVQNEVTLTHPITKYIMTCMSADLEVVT", "format": "biochemical"}, "HCV NS3h": {"target": "HCV NS3h (Hepatitis C virus genotype 1a, UniProt P27958)", "sequence (P27958 1193-1657)": "as above", "format": "biochemical"}, "MCF10A cells [2]": {"system": "MCF10A cells", "settings": "human"}, "[3]": {"target": "T1, SARS coronavirus helicase nsP13", "experiment": "biochemical", "settings": "for inhibition at 10 µM: read-out: inhibition of the ATPase activity of nsP13"}, "MCF10A cells [4]": {"system": "MCF10A cells", "experiment": "Cytotoxicity: growth of normal breast epithelial MCF10A cells", "settings": "2 μM, counted every 24h for 3 days"}}, "note": "Where two headings read alike, the source gives them in different places.", "data": [{"compound": "O=c1c(O)c(-c2cc(O)c(O)c(O)c2)oc2cc(O)cc(O)c12", "note": "[No. 6, myricetin]", "values": [{"measurement": "inhibition of the dsDNA-unwinding activity of SARS helicase, nsP13", "setting": "[1]", "value": "not inhibition of helicase activity"}, {"measurement": "inhibition of the DNA unwinding activity of HCV viral helicase", "setting": "HCV viral helicase, NS3h", "value": "did not suppress the helicase activity of HCV virus"}, {"measurement": "suppression of the ATPase activity of the HCV viral helicase", "setting": "HCV NS3h", "value": "did not seem to suppress the ATPase activity of HCV helicase protein"}, {"measurement": "effect on the growth of MCF10A cells (viable cell number)", "setting": "MCF10A cells [2]", "value": "did not affect the growth of MCF10A cells"}]}, {"compound": "O=c1cc(-c2ccc(O)c(-c3c(O)cc(O)c4c(=O)cc(-c5ccc(O)cc5)oc34)c2)oc2cc(O)cc(O)c12", "note": "[No. 18, amentoflavone]", "values": [{"measurement": "inhibition at 10 µM", "setting": "[3]", "value": "~20", "unit": "%"}]}, {"compound": "CC1(C)CC[C@]2(C)CC=C3[C@]4(C)CC[C@H]5C(C)(C)[C@@H](O)CC[C@]5(C)[C@H]4CC[C@@]3(C)[C@@H]2C1", "note": "[No. 58, taraxerol]", "values": [{"measurement": "inhibition at 10 µM", "setting": "[3]", "value": "~20", "unit": "%"}]}, {"compound": "Diosmetin-7-O-Glc-Xyl [No. 35]", "values": [{"measurement": "inhibition of the ATPase activity of nsP13", "setting": "[3]; 10 µM", "value": "around 20%"}]}, {"compound": "O=c1cc(-c2ccc(O)cc2)oc2cc(O)c(O)c(O)c12", "note": "[No. 8, scutellarein]", "values": [{"measurement": "IC50", "setting": "[3]", "value": "860 ± 480", "unit": "nM"}, {"measurement": "inhibition at 10 µM", "setting": "[3]", "value": "> 90", "unit": "%"}, {"measurement": "effect on the growth of MCF10A cells (viable cell number)", "setting": "MCF10A cells [4]", "value": "did not affect the growth of MCF10A cells"}]}]}
